Earlier results in patent publication US9738710B2, “Method of treating a patient for pain by administering an anti-ion channel antibody” (UCB Biopharma SPRL, priority 2009, dated 2017).
Where two headings read alike, the source gives them in different places.

Key:
hNav1.5 [1] = molecular target: T1, hNav1.5 (Homo sapiens, UniProt Q14524); details: read-out: FRET-based Assay hNav1.5
hNav1.7 [2] = molecular target: T2, hNav1.7 (Homo sapiens, UniProt Q15858); details: read-out: FRET-based Assay hNav1.7
T2 sequence (Q15858 whole entry): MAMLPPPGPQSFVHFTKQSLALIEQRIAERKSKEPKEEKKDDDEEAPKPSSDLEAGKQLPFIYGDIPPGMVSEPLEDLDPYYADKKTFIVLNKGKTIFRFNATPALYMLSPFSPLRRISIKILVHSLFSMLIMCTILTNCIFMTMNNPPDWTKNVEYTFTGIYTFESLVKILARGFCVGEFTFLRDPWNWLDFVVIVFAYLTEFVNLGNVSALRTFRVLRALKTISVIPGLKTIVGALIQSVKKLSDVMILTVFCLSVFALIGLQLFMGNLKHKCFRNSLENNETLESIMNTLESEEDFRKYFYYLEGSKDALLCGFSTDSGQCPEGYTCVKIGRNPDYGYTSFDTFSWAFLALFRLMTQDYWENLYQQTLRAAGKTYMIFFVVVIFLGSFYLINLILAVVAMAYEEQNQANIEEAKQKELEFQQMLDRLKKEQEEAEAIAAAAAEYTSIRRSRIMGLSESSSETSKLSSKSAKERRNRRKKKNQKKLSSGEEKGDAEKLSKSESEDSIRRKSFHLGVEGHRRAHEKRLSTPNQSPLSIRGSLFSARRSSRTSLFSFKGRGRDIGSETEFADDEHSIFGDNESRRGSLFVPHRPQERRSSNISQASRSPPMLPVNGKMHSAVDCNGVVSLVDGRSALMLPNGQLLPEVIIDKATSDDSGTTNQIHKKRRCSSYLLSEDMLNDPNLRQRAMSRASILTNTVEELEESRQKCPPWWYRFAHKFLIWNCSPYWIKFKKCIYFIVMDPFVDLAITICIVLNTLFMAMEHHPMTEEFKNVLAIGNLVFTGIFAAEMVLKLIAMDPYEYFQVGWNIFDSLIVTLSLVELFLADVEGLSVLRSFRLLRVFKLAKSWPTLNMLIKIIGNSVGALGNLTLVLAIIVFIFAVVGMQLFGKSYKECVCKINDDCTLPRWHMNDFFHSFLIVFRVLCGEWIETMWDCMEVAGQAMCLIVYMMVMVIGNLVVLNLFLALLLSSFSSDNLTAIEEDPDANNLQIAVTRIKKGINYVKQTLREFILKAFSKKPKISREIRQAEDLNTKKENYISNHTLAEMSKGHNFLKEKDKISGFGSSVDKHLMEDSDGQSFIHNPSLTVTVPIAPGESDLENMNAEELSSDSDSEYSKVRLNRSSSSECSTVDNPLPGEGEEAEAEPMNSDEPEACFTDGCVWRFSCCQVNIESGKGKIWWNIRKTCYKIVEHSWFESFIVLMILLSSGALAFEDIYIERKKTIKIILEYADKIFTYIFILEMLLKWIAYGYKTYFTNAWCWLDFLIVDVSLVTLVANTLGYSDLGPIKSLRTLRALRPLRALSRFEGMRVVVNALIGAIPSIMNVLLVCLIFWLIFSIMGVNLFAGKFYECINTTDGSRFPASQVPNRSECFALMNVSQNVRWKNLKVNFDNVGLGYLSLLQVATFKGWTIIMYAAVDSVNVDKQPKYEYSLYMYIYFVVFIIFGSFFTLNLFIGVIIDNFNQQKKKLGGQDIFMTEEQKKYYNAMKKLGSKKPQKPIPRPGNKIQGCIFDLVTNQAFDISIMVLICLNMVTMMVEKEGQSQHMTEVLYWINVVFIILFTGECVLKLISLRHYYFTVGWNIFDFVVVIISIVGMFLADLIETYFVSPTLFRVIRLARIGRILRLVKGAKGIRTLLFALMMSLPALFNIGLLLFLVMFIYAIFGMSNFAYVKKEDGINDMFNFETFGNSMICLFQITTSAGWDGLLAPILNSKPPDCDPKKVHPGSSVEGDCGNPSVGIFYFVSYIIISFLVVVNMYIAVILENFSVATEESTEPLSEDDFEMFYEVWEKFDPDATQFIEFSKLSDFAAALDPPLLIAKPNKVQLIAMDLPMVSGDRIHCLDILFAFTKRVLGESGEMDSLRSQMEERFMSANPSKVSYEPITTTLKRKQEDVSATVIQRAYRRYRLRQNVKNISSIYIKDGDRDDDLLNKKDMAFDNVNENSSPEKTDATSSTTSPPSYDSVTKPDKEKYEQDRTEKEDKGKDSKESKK

hNav1.8 = hNav1.8 (Homo sapiens, UniProt Q9Y5Y9); details: read-out: FRET-based Assay hNav1.8
hNav1.5 [3] = molecular target: T1, hNav1.5; details: read-out: Electrophysiology hNav1.5
hNav1.7 [4] = molecular target: T2, hNav1.7; details: read-out: Electrophysiology hNav1.7
[5] = neuropathic pain patients (Dworkin, 2002)

T1 sequence (Q14524 whole entry): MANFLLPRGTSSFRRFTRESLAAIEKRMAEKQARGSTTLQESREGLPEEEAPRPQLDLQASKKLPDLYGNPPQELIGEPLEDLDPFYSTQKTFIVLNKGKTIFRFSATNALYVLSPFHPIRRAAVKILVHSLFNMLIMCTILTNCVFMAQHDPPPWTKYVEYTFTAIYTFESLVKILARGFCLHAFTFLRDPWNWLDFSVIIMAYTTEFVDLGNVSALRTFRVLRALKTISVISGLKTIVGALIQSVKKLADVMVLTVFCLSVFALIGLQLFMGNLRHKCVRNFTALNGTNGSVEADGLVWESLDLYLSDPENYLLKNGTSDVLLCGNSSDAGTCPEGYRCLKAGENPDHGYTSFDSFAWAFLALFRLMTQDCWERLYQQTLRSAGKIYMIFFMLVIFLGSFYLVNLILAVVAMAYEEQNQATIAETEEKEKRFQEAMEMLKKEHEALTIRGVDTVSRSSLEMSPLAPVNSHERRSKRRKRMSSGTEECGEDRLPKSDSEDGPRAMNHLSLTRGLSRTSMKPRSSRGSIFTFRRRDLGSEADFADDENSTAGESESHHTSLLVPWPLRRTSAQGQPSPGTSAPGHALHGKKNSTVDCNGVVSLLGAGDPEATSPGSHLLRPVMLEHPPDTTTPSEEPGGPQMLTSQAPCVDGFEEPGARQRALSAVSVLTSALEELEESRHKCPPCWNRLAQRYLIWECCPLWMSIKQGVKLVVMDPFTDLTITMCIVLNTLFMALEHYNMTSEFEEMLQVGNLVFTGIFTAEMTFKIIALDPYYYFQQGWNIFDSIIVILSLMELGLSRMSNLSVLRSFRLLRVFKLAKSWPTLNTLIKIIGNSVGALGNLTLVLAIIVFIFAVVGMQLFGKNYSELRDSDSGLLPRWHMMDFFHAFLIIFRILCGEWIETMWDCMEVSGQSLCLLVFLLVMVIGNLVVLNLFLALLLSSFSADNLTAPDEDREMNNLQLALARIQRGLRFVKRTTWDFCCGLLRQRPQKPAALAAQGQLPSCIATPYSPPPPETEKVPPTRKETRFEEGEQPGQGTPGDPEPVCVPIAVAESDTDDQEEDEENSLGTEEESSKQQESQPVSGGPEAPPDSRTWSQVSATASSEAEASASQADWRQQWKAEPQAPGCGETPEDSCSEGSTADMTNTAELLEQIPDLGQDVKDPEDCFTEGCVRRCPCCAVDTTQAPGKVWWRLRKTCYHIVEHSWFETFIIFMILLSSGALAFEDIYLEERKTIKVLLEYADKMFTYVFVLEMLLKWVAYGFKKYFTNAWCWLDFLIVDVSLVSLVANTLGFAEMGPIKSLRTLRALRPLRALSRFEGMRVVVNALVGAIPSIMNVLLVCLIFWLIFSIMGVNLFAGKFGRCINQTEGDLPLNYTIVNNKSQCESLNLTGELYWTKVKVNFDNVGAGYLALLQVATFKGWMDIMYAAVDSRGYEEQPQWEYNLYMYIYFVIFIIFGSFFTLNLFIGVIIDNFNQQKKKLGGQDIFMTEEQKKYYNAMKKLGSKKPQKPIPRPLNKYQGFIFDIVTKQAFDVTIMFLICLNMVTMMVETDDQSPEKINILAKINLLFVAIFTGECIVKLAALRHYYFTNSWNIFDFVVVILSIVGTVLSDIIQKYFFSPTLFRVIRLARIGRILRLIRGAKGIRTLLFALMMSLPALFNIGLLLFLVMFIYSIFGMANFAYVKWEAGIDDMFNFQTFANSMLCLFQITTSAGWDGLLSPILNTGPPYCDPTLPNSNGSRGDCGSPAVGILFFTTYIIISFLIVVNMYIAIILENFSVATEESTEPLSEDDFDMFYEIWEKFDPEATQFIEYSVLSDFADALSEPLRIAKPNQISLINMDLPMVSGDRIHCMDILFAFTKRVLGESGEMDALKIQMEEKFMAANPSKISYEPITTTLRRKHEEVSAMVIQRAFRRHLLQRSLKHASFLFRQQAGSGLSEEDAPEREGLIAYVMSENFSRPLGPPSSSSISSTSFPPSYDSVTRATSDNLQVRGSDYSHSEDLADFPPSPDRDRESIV

SMILES	IC50 (hNav1.5 [1])	IC50 (hNav1.7 [2])	IC50 (hNav1.8)	IC50 (hNav1.5 [3])	IC50 (hNav1.7 [4])	reduction of pain [5]	share of patients with that pain reduction [5]
CC(C)N1C(=O)C(NC(=O)C(Cc2ccccc2F)NC(=O)c2ccc(F)cc2C(F)(F)F)CCc2cc(Cl)ccc21 [N—[(R)-1-(R)-7-chloro-1-isopropyl-2-oxo-2,3,4,5-tetrahydro-1H-benzo[b]azepine-3-ylcarbamoyl)-2-(2-fluorophenyl)-ethyl]-4-fluoro-2-trifluoromethyl-benzamide]	180 nM	30 nM	300 nM	4300 nM	550 nM	–	–
NCC1(CC(=O)O)CCCCC1 [gabapentin]	–	–	–	–	–	≤ 50%	about 40%
